Source: the supplement of paper PMC11208160

Experiment: recombinant UMI read abundance after kanamycin selection (control-corrected) (log10(CPM+1)); higher = more efficient recombination; extreme values may be limits of the assay; sequences stand for … in AGTGCAGAGAAAATCGGCCAGTTTTCTCTGCCTGCAGTCCGCATGCCGTGGGACCCCTTGGGTTCTAACCTGTTGCCTAGATTTATGCAGCGGACTGCCTTTCTCCCAAAGTGATAAACCGG…AGGTTGGTTTCACT; site = the 11-nt donor
Method: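 Pooled E. coli donor-specificity screen for the IS621 bridge recombinase. Each library member carries a reprogrammed 11-nt donor and a full-length LE bridge RNA expressed in cis from the natural promoter, with a paired donor-binding loop (8-nt LDG + 4-nt RDG) and a target-binding loop fixed to T5. It is co-electroporated with a T5 target plasmid; recombinase is induced with 0.07 mM IPTG and recombinants are selected on kanamycin. UMIs are counted as CPM, averaged over two biological replicates and corrected by the unselected control. Molecule = full bridge RNA written as DNA, built from the T5 scaffold: LDG = donor specificity nt 1-8, RDG = reverse complement of nt 8-11.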
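Note: IS621 bridge recombinase in Escherichia coli cells against a fixed T5 target plasmid.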

Going from “CGGTAGTCATGGACCGGTTTTCCCGGTAATCCGTATTTGTT (site CGGTAGTCTAA)” to “ACTGTAACATGGACCGGTTTTCCCGGTAATCCGTATTTGCT (site AATGTAACTAG)”, the “recombinant UMI read abundance (log10)” value falls from 3.15 to 0.987.

“ACAAGGCCATGGACCGGTTTTCCCGGTAATCCGTATTTGAC (site AAAAGGCCTGT)” and “TCGACCGCATGGACCGGTTTTCCCGGTAATCCGTATTTGCG (site TCTACCGCTCG)” are within 0.2 log units of each other in “recombinant UMI read abundance (log10)” value: 0 for the first, 0.0287 for the second.

First: CTACTACCATGGACCGGTTTTCCCGGTAATCCGTATTTGGA (site CTACTATCTTC)
Second: ATACGAACATGGACCGGTTTTCCCGGTAATCCGTATTTGTC (site AAACGAACTGA)
The “recombinant UMI read abundance (log10)” value of the first is higher: 1.1 for the first, 0 for the second.

Compared with “TAGTGTACATGGACCGGTTTTCCCGGTAATCCGTATTTGGT (site TAGTGTACTAC)”, “CGATCATCATGGACCGGTTTTCCCGGTAATCCGTATTTGCT (site CGATCGTCTAG)” is lower in “recombinant UMI read abundance (log10)” value: 0.534 for the first, 0 for the second.

“CGCCGTGCATGGACCGGTTTTCCCGGTAATCCGTATTTGCT (site CGCCGTGCTAG)” and “CTTGTCTCATGGACCGGTTTTCCCGGTAATCCGTATTTGAA (site CTTGTCTCTTT)” are within 0.2 log units of each other in “recombinant UMI read abundance (log10)” value: 1.97 for the first, 1.85 for the second.

First: ATTGACACATGGACCGGTTTTCCCGGTAATCCGTATTTGGT (site ATTGATACTAC)
Second: AAGAAGCCATGGACCGGTTTTCCCGGTAATCCGTATTTGCA (site AAGAAGCCTTG)
The “recombinant UMI read abundance (log10)” value of the first is lower: 0.459 for the first, 1.32 for the second.

First: TGCTTGACATGGACCGGTTTTCCCGGTAATCCGTATTTGCT (site TTCTTGACTAG)
Second: TCTAAGTCATGGACCGGTTTTCCCGGTAATCCGTATTTGCA (site TCTAAGTCTTG)
The “recombinant UMI read abundance (log10)” value of the first is lower: 0.00367 for the first, 0.436 for the second.

First: AGAGGACCATGGACCGGTTTTCCCGGTAATCCGTATTTGGG (site GGAGGACCTCC)
Second: TTATCATCATGGACCGGTTTTCCCGGTAATCCGTATTTGCT (site TTATCATCTAG)
The “recombinant UMI read abundance (log10)” value of the first is lower: 0.0142 for the first, 1.98 for the second.

First: AGGAAGCCATGGACCGGTTTTCCCGGTAATCCGTATTTGAA (site AGGAAGACTTG)
Second: GGTGCAACATGGACCGGTTTTCCCGGTAATCCGTATTTGTA (site GGTGCAACTTA)
The “recombinant UMI read abundance (log10)” value of the first is lower: 0 for the first, 0.221 for the second.

“GCGAAGCCATGGACCGGTTTTCCCGGTAATCCGTATTTGGC (site GCGAAGCCTAC)” and “CAGTCGACATGGACCGGTTTTCCCGGTAATCCGTATTTGCG (site CAGTCGACTCT)” are within 0.2 log units of each other in “recombinant UMI read abundance (log10)” value: 0.0106 for the first, 0.00924 for the second.

“TTACCCACATGGACCGGTTTTCCCGGTAATCCGTATTTGTG (site TTACCCACTCA)” and “TTCAATTCATGGACCGGTTTTCCCGGTAATCCGTATTTGCC (site TTCAATTCTGG)” are within 0.2 log units of each other in “recombinant UMI read abundance (log10)” value: 0.0352 for the first, 0 for the second.

Compared with “GATGGGACATGGACCGGTTTTCCCGGTAATCCGTATTTGAC (site GATGGGACTGT)”, “ACAGTATCATGGACCGGTTTTCCCGGTAATCCGTATTTGTG (site ACAGTATCTCA)” is higher in “recombinant UMI read abundance (log10)” value: 2.75 for the first, 3.03 for the second.

First: GTACCCACATGGACCGGTTTTCCCGGTAATCCGTATTTGTC (site GTACCCACTGA)
Second: TGTTTAGCATGGACCGGTTTTCCCGGTAATCCGTATTTGGG (site TGTTTAGCTCC)
The “recombinant UMI read abundance (log10)” value of the first is higher: 2.64 for the first, 0.00333 for the second.

First: CGATCATCATGGACCGGTTTTCCCGGTAATCCGTATTTGCT (site GGATCATCTAG)
Second: CAAGCGCCATGGACCGGTTTTCCCGGTAATCCGTATTTGTG (site CAGGCGCCTCA)
The “recombinant UMI read abundance (log10)” value of the first is higher: 0.606 for the first, 0.0473 for the second.

First: AGTCTTACATGGACCGGTTTTCCCGGTAATCCGTATTTGGT (site AGTCTTACTAC)
Second: CCCCACACATGGACCGGTTTTCCCGGTAATCCGTATTTGTA (site CCCCACTCTTA)
The “recombinant UMI read abundance (log10)” value of the first is higher: 1.14 for the first, 0.273 for the second.

Compared with “CGGAATCCATGGACCGGTTTTCCCGGTAATCCGTATTTGTT (site CGCAACCCTAA)”, “TGTACCCCATGGACCGGTTTTCCCGGTAATCCGTATTTGTA (site TGTCCCCCTTA)” is higher in “recombinant UMI read abundance (log10)” value: 0.00816 for the first, 0.253 for the second.

Compared with “ACAGGAACATGGACCGGTTTTCCCGGTAATCCGTATTTGTC (site ACATGAACTGA)”, “ATAGCTACATGGACCGGTTTTCCCGGTAATCCGTATTTGTA (site ATAGCTACTTA)” is higher in “recombinant UMI read abundance (log10)” value: 0.289 for the first, 2.3 for the second.

Compared with “ACGACTACATGGACCGGTTTTCCCGGTAATCCGTATTTGAC (site AAGACTACTGT)”, “CACTCCTCATGGACCGGTTTTCCCGGTAATCCGTATTTGCC (site CACTTCTCTGG)” is lower in “recombinant UMI read abundance (log10)” value: 1.19 for the first, 0 for the second.

“CGGAATCCATGGACCGGTTTTCCCGGTAATCCGTATTTGTT (site CATAATCCTAA)” and “AGGGTCCCATGGACCGGTTTTCCCGGTAATCCGTATTTGTG (site AGGTTCCCTCA)” are within 0.2 log units of each other in “recombinant UMI read abundance (log10)” value: 0 for the first, 0.0182 for the second.

Going from “TATTTGACATGGACCGGTTTTCCCGGTAATCCGTATTTGTG (site TATTTGGCTCA)” to “ATCTCTGCATGGACCGGTTTTCCCGGTAATCCGTATTTGCT (site ATCTCTGCTAG)”, the “recombinant UMI read abundance (log10)” value rises from 0.00542 to 1.73.

“GAGCGCGCATGGACCGGTTTTCCCGGTAATCCGTATTTGCG (site GAGCGCGCTCG)” and “ATAGAGACATGGACCGGTTTTCCCGGTAATCCGTATTTGGT (site ATAGAGACTAC)” are within 0.2 log units of each other in “recombinant UMI read abundance (log10)” value: 1.56 for the first, 1.75 for the second.

Compared with “TAAAATCCATGGACCGGTTTTCCCGGTAATCCGTATTTGTA (site TAAACTCCTTA)”, “CATTGGACATGGACCGGTTTTCCCGGTAATCCGTATTTGAC (site GATTGGACTGT)” is lower in “recombinant UMI read abundance (log10)” value: 1.43 for the first, 0 for the second.

Going from “TTTATCCCATGGACCGGTTTTCCCGGTAATCCGTATTTGAT (site TTTATCCCTAT)” to “TTTGTGGCATGGACCGGTTTTCCCGGTAATCCGTATTTGCT (site TTTGCGGCTAG)”, the “recombinant UMI read abundance (log10)” value falls from 0.263 to 0.00488.

First: ATGTCCGCATGGACCGGTTTTCCCGGTAATCCGTATTTGCC (site ATGTCCGCTGG)
Second: CCGTTTACATGGACCGGTTTTCCCGGTAATCCGTATTTGCG (site CCGTTTACTGG)
The “recombinant UMI read abundance (log10)” value of the first is higher: 2.45 for the first, 0 for the second.

“CACTCCTCATGGACCGGTTTTCCCGGTAATCCGTATTTGCC (site CACTCCGCTGG)” and “GATCCAACATGGACCGGTTTTCCCGGTAATCCGTATTTGTA (site GCTCCAACTTA)” are within 0.2 log units of each other in “recombinant UMI read abundance (log10)” value: 0.0071 for the first, 0.00727 for the second.

“CTTCTGTCATGGACCGGTTTTCCCGGTAATCCGTATTTGTA (site CTTCTTTCTTA)” and “CGGGAGTCATGGACCGGTTTTCCCGGTAATCCGTATTTGCC (site CCGGAGTCTGG)” are the same in “recombinant UMI read abundance (log10)” value: 0 for the first, 0 for the second.

First: AGATCATCATGGACCGGTTTTCCCGGTAATCCGTATTTGTT (site AGATCATCTAA)
Second: ATACGAACATGGACCGGTTTTCCCGGTAATCCGTATTTGTC (site AGACGAACTGA)
The “recombinant UMI read abundance (log10)” value of the first is higher: 0.929 for the first, 0 for the second.

Going from “ACTAGAACATGGACCGGTTTTCCCGGTAATCCGTATTTGAA (site ACTAGAACTTT)” to “GAATGCTCATGGACCGGTTTTCCCGGTAATCCGTATTTGAA (site CAATGCTCTTT)”, the “recombinant UMI read abundance (log10)” value falls from 1.45 to 1.08.

Going from “AGGAAGACATGGACCGGTTTTCCCGGTAATCCGTATTTGCT (site AGGAAGACTTG)” to “TTGAATACATGGACCGGTTTTCCCGGTAATCCGTATTTGCA (site TGGAATACTTG)”, the “recombinant UMI read abundance (log10)” value falls from 1.46 to 0.

First: ATCTAGACATGGACCGGTTTTCCCGGTAATCCGTATTTGGG (site AACTAGACTCC)
Second: CGCCGGACATGGACCGGTTTTCCCGGTAATCCGTATTTGCT (site CGCCGAACTAG)
The “recombinant UMI read abundance (log10)” value of the first is lower: 0.0333 for the first, 2.52 for the second.

“ACCTATACATGGACCGGTTTTCCCGGTAATCCGTATTTGGG (site ACCTATACTCC)” and “CGATCATCATGGACCGGTTTTCCCGGTAATCCGTATTTGCT (site CTATCCTCTAG)” are within 0.2 log units of each other in “recombinant UMI read abundance (log10)” value: 0.0144 for the first, 0 for the second.

“GTTAGAACATGGACCGGTTTTCCCGGTAATCCGTATTTGGC (site GTAAGAACTGC)” and “TCAACCCCATGGACCGGTTTTCCCGGTAATCCGTATTTGTG (site TCAACCCCTCA)” are within 0.2 log units of each other in “recombinant UMI read abundance (log10)” value: 0 for the first, 0.00442 for the second.

“TTTAGACCATGGACCGGTTTTCCCGGTAATCCGTATTTGTC (site TTTAGACCTGA)” and “TGGCCGGCATGGACCGGTTTTCCCGGTAATCCGTATTTGAC (site TGGCCGGCTGA)” are within 0.2 log units of each other in “recombinant UMI read abundance (log10)” value: 0 for the first, 0.00628 for the second.

“TTATGAGCATGGACCGGTTTTCCCGGTAATCCGTATTTGGG (site TAATGAGCTCC)” and “GTTGTACCATGGACCGGTTTTCCCGGTAATCCGTATTTGGT (site GTTGTGCCTAC)” are within 0.2 log units of each other in “recombinant UMI read abundance (log10)” value: 0.0152 for the first, 0.0127 for the second.

Going from “GGGCAATCATGGACCGGTTTTCCCGGTAATCCGTATTTGTC (site GGGCAATCTGA)” to “CGATCATCATGGACCGGTTTTCCCGGTAATCCGTATTTGCT (site GGATCGTCTAG)”, the “recombinant UMI read abundance (log10)” value falls from 2.8 to 0.00614.

“ACTAATGCATGGACCGGTTTTCCCGGTAATCCGTATTTGGT (site ACTACTGCTAC)” and “TCCCACCCATGGACCGGTTTTCCCGGTAATCCGTATTTGAT (site TCCCACCCTAT)” are within 0.2 log units of each other in “recombinant UMI read abundance (log10)” value: 0.116 for the first, 0.0298 for the second.
